Experimental data taken from publication PMC9865752, “Design and Synthesis of (Z)-2-(Benzylamino)-5-benzylidenethiazol-4(5H)-one Derivatives as Tyrosinase Inhibitors and Their Anti-Melanogenic and Antioxidant Effects” (Molecules, 2023).
Read-outs that look alike come from different tables or passages of the source.

Assays:
[1] = tested on: microphthalmia-associated transcription factor (MITF); experiment: Western blotting of MITF protein expression; format: cell-based, murine
Procedure: We investigated whether, in addition to the direct inhibition of tyrosinase, another inhibitory mechanism of melanogenesis by derivative 8 may be related to the expression of proteins involved in melanogenesis. For the Western blotting experiment, B16F10 cells were treated with α-MSH (1 µM) plus IBMX (200 µM), leading to a 1.7- and 4.9-fold increase in expression levels of melanogenesis-associated proteins tyrosinase and MITF, compared to those in the untreated control (100%) (Figure 13).
B16F10 cells were seeded in a 60 mm dish at a density of 5 × 10^5 cells/mL for 24 h, washed with cold PBS, and harvested. Cytosolic and nuclear fractions of cell lysates were extracted using lysis buffer, as described previously. Protein concentrations in the cell lysates were estimated using the BCA protein assay (Pierce, Rockford, IL, USA). […] The membranes were washed and protein bands detected using the SuperSignal West Pico Chemiluminescence assay kit (Advansta, San Jose, CA, USA) and the Davinch–Chem program (Davinch-K, Seoul, Republic of Korea). Immunoblotting data were quantified using CS Analyzer 3.2 (Densitograph) image analysis software (http://www.attokorea.co.kr, accessed on 21 November 2022).

mushroom tyrosinase = experiment: Mushroom tyrosinase inhibition assay; format: biochemical; conditions: for IC50: mean ± SEM of three experiments
Procedure: As mushroom tyrosinase is commercially available and relatively cheap, it is used as a tool for the identification of novel tyrosinase inhibitors. Here, we examined the tyrosinase inhibitory activities of the 14 BABT derivatives against mushroom tyrosinase in the presence of L-tyrosine or L-dopa as substrates.
Mushroom tyrosinase inhibitory activities of BABT derivatives were determined as described previously, with minor modifications. L-Tyrosine and L-dopa were used as substrates to evaluate the enzyme activity. […] Assay mixtures were incubated at 37 °C for 30 min, and dopachrome amounts synthesized were determined by measuring the optical density of each well at 475 nm using a microplate reader (VersaMax; Molecular Devices, Sunnyvale, CA, USA).

B16F10 cells = experiment: Measurement of extracellular and intracellular melanin levels; format: cell-based, murine; conditions: α-MSH plus IBMX stimulated B16F10 cells, 72 h
Procedure: To investigate the effects of derivative 8 on extracellular and intracellular melanin levels in B16F10 cells, the cells were treated with various concentrations (5, 10, and 20 µM) of derivative 8 for 1 h, in addition to co-treatment with α-MSH (0.5 µM) and 3-isobutyl-1-methylxanthine (IBMX; 200 µM) to enhance melanin biosynthesis in B16F10 cells. After 72 h of incubation, the effects of 8 on extracellular and intracellular melanin levels were determined by measuring the melanin absorbance in the culture media and cell lysates, respectively, at 405 nm using a microplate reader.
The effect of 8 on melanin production was measured using a standard melanin content assay, with minor modifications. Briefly, B16F10 cells were seeded at a density of 1 × 10^5 cells per well and allowed to adhere to the well bottoms for 24 h under the conditions used for cell cultures. […] After incubation for 72 h at 37 °C in a 5% CO2 atmosphere, melanin levels were determined. To measure the extracellular melanin levels, the absorbance of each well of the culture medium was measured at 405 nm. […] Cultured cells were washed twice with PBS, and the pellets obtained were dissolved using 1 N NaOH solution (200 µL, 10% DMSO) at 60 °C for 1 h. Cell lysates were transferred to the wells of a 96-well plate, and the optical density of melanin dissolved in each well was measured at 405 nm in aqueous DMSO solution using a microplate reader (VersaMax; Molecular Devices).

SMILES: O=C1N=C(NCc2ccccc2)S/C1=C\c1ccc(O)cc1O [Compound 8, (Z)-2-(benzylamino)-5-(2,4-dihydroxybenzylidene)thiazol-4(5H)-one]
- relative expression level of MITF protein ([1]; 10 µM, α-MSH plus IBMX treated B16F10 cells): lowered the protein expression to the same or lower control levels
- relative expression level of MITF protein ([1]; 5, 10 and 20 µM, α-MSH (1 µM) plus IBMX (200 µM) treated B16F10 cells): significantly reduced the relative expression levels of tyrosinase and MITF in a dose-dependent manner
- fold higher IC50 value with L-dopa than with L-tyrosine (mushroom tyrosinase; L-dopa versus L-tyrosine as substrate): 4 fold
- IC50 (mushroom tyrosinase; substrate L-dopa, read-out: IC50 (µM) L-Dopa): 1.04 ± 0.05 µM
- fold more potent than kojic acid (mushroom tyrosinase; substrate L-tyrosine): 106 fold
- IC50 (mushroom tyrosinase; substrate L-tyrosine, read-out: IC50 (µM) L-Tyrosine): 0.27 ± 0.03 µM
- extracellular melanin levels compared to untreated control (B16F10 cells; 5 µM): 1.22 fold
- intracellular melanin levels (in words) (B16F10 cells; 5 µM): more potent inhibitory activity on melanin production than kojic acid at 20 µM
- extracellular melanin levels compared to untreated control (B16F10 cells; 10 µM): 1.03 fold
- extracellular melanin levels compared to untreated control (B16F10 cells; 20 µM): 1.00 fold
- intracellular melanin levels (in words) (B16F10 cells; 20 µM): lower than those in the untreated control
